Data as given in US20250161287A1, “METHODS, COMPOSITIONS, AND COMBINATIONS FOR PREVENTING OR TREATING CANCER RECURRENCE” (VUJA DE SCIENCES, INC., priority 2022, published 2025).
Several values for one entry are separate records, joined by “and”; a condition that tells them apart may be missing. Equal values may be shown once. Entries after “also recorded” stand apart in the source; their conditions may differ. Read-outs that look alike come from different tables or passages of the source.

What was measured:
[1] = tested on: MG63.3 OS cell line; assay: 2D growth / cytotoxicity by MTT, MG63.3; settings: for doses exhibiting cytotoxicity on 2D growth: 72 h
Method: The number of viable cells present in 2D culture was determined by MTT as previously reported. Briefly, cells were plated in 96-well plates at 2,000 cells/well and incubated at 37° C. for 24 h. After 24 h, the media was replaced with fresh media containing drugs at the desired concentrations (10 pM-10 μM) and incubated at 37° C. for 72 h. After 72 h, MTT reagent (20 L/well of a 5 mg/mL stock solution in sterile water; Sigma, St. Louis, MO) was added to each well and the plate was incubated at 37° C. for 2 h. DMSO ([…]) was then added to each well to solubilize the formazan crystals.
The resulting absorbance was measured at 490 nm via plate reader (Molecular Devices, San Jose, CA). DMSO (0.1%) was used as vehicle control, while 20 μM rapamycin was used as a positive cell-kill control. The experimental conditions were conducted in triplicate and each experiment was repeated three times. Regression lines and IC50's were calculated using a four-parameter variable slope nonlinear fit in GraphPad Prism.

[2] = tested on: MG63.3 OS cell line; assay: in vitro 3D BME assay with MG63.3 OS cell line; assay type: cell-based, human; settings: for activity on 3D BME compared with 2D: MG63.3, 3D BME vs 2D MTT 72 h; for 3D activity and selectivity for ME in a screen of 10 HDAC inhibitors: selectivity = ratio of 3D to 2D % inhibition at the same dose, Class I, Class II, pan-HDAC; for 3D growth inhibition and selectivity for ME at selected dose: givinostat 400 nM, quisinostat 10 nM; for 3D growth inhibition and selectivity for ME at selected dose / earlier (2 days on, 4 days off) vs later (2 days off, 4 days on) treatment: MG63.3 3D BME
Source text: 3D basement membrane extract (BME) assay was developed at the NCI Barkan (D. Barkan et al. 2008; Dalit Barkan and Green 2011; Hen and Barkan 2020). BME is purified from Engelbreth-Holm-Swarm (EHS) tumor, primarily made up of laminin, collagen IV, entactin, and heparin sulfate proteoglycans (Cultrex Reduced Growth Factor Basement Membrane Extract, PathClear n.d.), which allows it to more accurately reflect the 3D extracellular environment in the body.
Initially >150 selected therapeutic agents were tested on BME based on the likelihood for either a positive effect or a […] negative effect (as negative controls). […] These therapeutic agents were also tested in dose response (as broad as 1 pM-100 μM) for 2D cytotoxicity (MTT) and the IC50 was calculated. Where required, the hits from the initial screen were also further characterized at additional doses <100 nM in order to further determine the relative selectivity compared to the 2D IC50.
The influence of drug exposure on the metastatic phenotype was assessed in an in vitro assay of ME and escape from dormancy using a 3D BME assay as previously reported, which was adapted for use with OS cells.
Cultrex® PathClear, Reduced Growth Factor Basement Membrane Extract (BME—Bio-Techne, Minneapolis, MN) was added ([…]) to a 96-well plate and allowed to gel by incubating at 37° C. for ≥30 min. Cells were harvested, washed with DMEM (no glucose, no FBS, Gibco, Grand Island, NY) and centrifuged at 1500 g×5 mins. The media was aspirated and the remaining cell pellet flicked for about 10 s to ensure disaggregation.
Cells were diluted in assay media containing 2% BME, resuspended vigorously and 150 μL of the cell suspension was added on top of the gelled 3D BME layer. […] Cell numbers were determined in control vehicle (cells in media+0.1% DMSO), or treated wells and were measured on the indicated days by addition of 20 μL/well of MTS reagent (Cell Titer 96 Aqueous One, Promega, Madison, WI), followed by incubation at 37° C. for 2 h and absorbance measurements at 490 nm via plate reader (Molecular Devices, San Jose CA).
All conditions were conducted in quadruplicate and each experiment was carried out at least 3 separate times. All comparisons were made between treatment and vehicle control at concordant time points. Statistical analyses and non-linear regressions were derived using GraphPad Prism statistical software.

[3] = Homo sapiens, MG-63.3, MG63.3 on 3D BME, vs vehicle control, replicates=4, read-out: lowest dose leading to appreciable inhibition of 3D growth
[4] = domatinostat 100-200 nM, MG63.3
[5] = MG63.3 on 3D BME, vs vehicle control, replicates=4, read-out: lowest dose leading to appreciable inhibition of 3D growth
[6] = MG63.3 on 3D BME, vs vehicle control, replicates=4

SMILES	doses exhibiting cytotoxicity on 2D growth ([1]; human) [nM]	minimal effective concentration [2, 3] [µM]	activity on 3D BME compared with 2D [2]	other results
CCN(CC)Cc1ccc2cc(COC(=O)Nc3ccc(C(=O)NO)cc3)ccc2c1 [givinostat]	≥ 600	0.3	more active in 3D than in 2D	3D activity and selectivity for ME in a screen of 10 HDAC inhibitors ([2]; MG63.3): highest 3D activity and selectivity for ME; 3D growth inhibition and selectivity for ME at selected dose [2]: significant 3D growth inhibition and selectivity for ME
Cn1cc(-c2ccc(S(=O)(=O)n3ccc(/C=C/C(=O)Nc4ccccc4N)c3)cc2)cn1 [domatinostat]	≥ 200	0.1	much stronger activity on 3D BME at similar doses; also recorded: more active in 3D than in 2D	inhibition in 2D at these doses [1, 4]: no statistically significant inhibition; earlier (2 days on, 4 days off) vs later (2 days off, 4 days on) treatment ([2]; FIG. 68, rapamycin 2-16 nM experiment): slightly more inhibition than later treatment; 3D activity and selectivity for ME in a screen of 10 HDAC inhibitors ([2]; MG63.3): highest 3D activity and selectivity for ME; efficacy of domatinostat alone treated for 1 day ([2]; domatinostat 100-200 nM, 1 day on, 5 days off): little to no efficacy; growth inhibition in the 3D BME assay [2, 4]: 20-50%; inhibition of 3D growth relative to vehicle, two schedules ([2]; domatinostat 200-800 nM, Days 3-6 (2 days off, 4 days on) or Days 1-2 (2 days on, 4 days off), P<0.005): significantly inhibition relative to vehicle for both treatment schedules; earlier (2 days on, 4 days off) vs later (2 days off, 4 days on) treatment ([2]; domatinostat 200-800 nM): slightly more inhibition than later treatment; re-treatment on Day 3 vs treated once, inhibition of 3D growth ([2]; rapamycin 1 nM, domatinostat 100 & 150 nM, combination, P<0.01 for all except 100 nM domatinostat alone): significantly increased inhibition relative to the conditions only treated with drug once
CO[C@@]12[C@H](COC(N)=O)C3=C(C(=O)C(C)=C(N)C3=O)N1C[C@@H]1N[C@@H]12 [mitomycin C]			much stronger activity on 3D BME at significantly lower doses; also recorded: more active in 3D than in 2D	IC50 ([1]; read-out: 2D IC50, MG63.3, MTT 72 h): 1000 nM and ~1000 nM; IC50 ([2]; MG63.3): 50 nM; minimal effective concentration [2, 5]: 0.0125 µM
O=C(/C=C/c1cccnc1)NCCCCC1CCN(C(=O)c2ccccc2)CC1 [(E)-daporinad]	> 0.1		much stronger activity on 3D BME at significantly lower doses	minimal effective concentration [2, 5]: 0.0001 µM
O=C(NOC[C@H](O)CO)c1ccc(F)c(F)c1Nc1ccc(I)cc1F [PD0325901]	≥ 100		much stronger activity on 3D BME at similar doses; also recorded: more active in 3D than in 2D	inhibition in 2D at this dose ([1]; PD0325901 1-128 nM, MG63.3): no statistically significant inhibition; minimal effective concentration ([2]; Homo sapiens, MG-63.3, read-out: lowest dose leading to appreciable inhibition of 3D growth): 0.001 µM; growth inhibition in the 3D BME assay ([2]; PD0325901 1-128 nM, MG63.3): 50-75%
CC(C)n1nc(-c2ccc3oc(N)nc3c2)c2c(N)ncnc21 [sapanisertib]	> 8	0.001		
CO[C@H]1/C=C\C=C(/C)C(=O)NC2=CC(=O)C(NCCN(C)C)=C(C[C@@H](C)C[C@H](OC)[C@H](O)[C@@H](C)/C=C(\C)[C@@H]1OC(N)=O)C2=O [alvespimycin]		0.0125	much stronger activity on 3D BME at significantly lower doses	doses exhibiting cytotoxicity on 2D growth ([1]; MG63.3, MTT, replicates=3): > 25 nM
Cn1cc(CNCC2CCN(c3ncc(C(=O)NO)cn3)CC2)c2ccccc21 [quisinostat]	≥ 80	0.01	more active in 3D than in 2D	3D activity and selectivity for ME in a screen of 10 HDAC inhibitors ([2]; MG63.3): highest 3D activity and selectivity for ME; 3D growth inhibition and selectivity for ME at selected dose [2]: significant 3D growth inhibition and selectivity for ME
CC(C)[C@]12O[C@H]1[C@@H]1O[C@]13[C@]1(O[C@H]1C[C@H]1C4=C(CC[C@@]13C)C(=O)OC4)[C@@H]2O [triptolide]				cytotoxicity on 2D growth [1]: cytotoxicity at all doses tested; lowest dose leading to complete inhibition of 3D growth [2, 6]: 1 nM
COc1c(C)cnc(Cn2cnc3c(Cl)nc(N)nc32)c1C [BIIB021]	> 10	0.008	much stronger activity on 3D BME at significantly lower doses	
CC(C)[C@]12O[C@H]1[C@@H]1O[C@]13[C@]1(O[C@H]1C[C@H]1C4=C(CC[C@@]13C)C(=O)OC4)[C@@H]2OCOP(=O)(O)O [minnelide]				doses exhibiting cytotoxicity on 2D growth ([1]; MG63.3, MTT, replicates=3): ≥ 0.781 nM; lowest dose leading to complete inhibition of 3D growth [2, 6]: 4 nM
O=C(/C=C/c1cccc(S(=O)(=O)Nc2ccccc2)c1)NO [belinostat]	≥ 80	0.2		3D activity and selectivity for ME in a screen of 10 HDAC inhibitors ([2]; MG63.3): 3D activity and selectivity for ME
COc1cc(Nc2ncc3c(n2)-c2ccc(Cl)cc2C(c2c(F)cccc2OC)=NC3)ccc1C(=O)O [alisertib]	> 25	0.0125	much stronger activity on 3D BME at significantly lower doses	
CO[C@H]1C[C@@H]2CC[C@@H](C)[C@@](O)(O2)C(=O)C(=O)N2CCCC[C@H]2C(=O)O[C@H]([C@H](C)C[C@@H]2CC[C@@H](OCCO)[C@H](OC)C2)CC(=O)[C@H](C)/C=C(\C)[C@@H](O)[C@@H](OC)C(=O)[C@H](C)C[C@H](C)/C=C/C=C/C=C/1C [everolimus]		0.01	much stronger activity on 3D BME at similar doses	cytotoxicity on 2D growth [1]: cytotoxicity across all doses tested
O=C(CC1NCCCC1O)Cn1cnc2cc(Br)c(Cl)cc2c1=O (stereo not drawn) [halofuginone]	≥ 12.5			lowest dose leading to >25% inhibition of 3D growth [2, 6]: 3 nM
C=CCNc1c(O)cc2c(O)c1C[C@@H](C)C[C@H](OC)[C@H](O)[C@@H](C)/C=C(\C)[C@H](OC(N)=O)[C@@H](OC)/C=C\C=C(/C)C(=O)N2 [retaspimycin]		0.2		doses exhibiting cytotoxicity on 2D growth ([1]; MG63.3, MTT, replicates=3): > 400 nM
Cc1[nH]c2ccccc2c1CCNCc1ccc(/C=C/C(=O)NO)cc1 [panobinostat]	≥ 80	0.04		
COc1ccc(-c2nc(N3CCOCC3)c3sc(CN(C)c4ncc(C(=O)NO)cn4)cc3n2)cn1 [fimepinostat]	≥ 1			3D activity and selectivity for ME in a screen of 10 HDAC inhibitors ([2]; MG63.3): 3D activity and selectivity for ME; lowest dose leading to complete inhibition of 3D growth [2, 6]: 5 nM
